Measurements from patent US8501683B2, “Cycloundecadepsipeptide compounds and use of said compounds as a medicament” (priority 2008, dated 2013).
Square brackets hold non-standard residues; d marks the D form. Peptide text beside a SMILES is read from it. MeBmt = C/C=C/C[C@@H](C)[C@@H](O)[C@H](NC)C(=O)O; NMeI = CC[C@H](C)[C@H](NC)C(=O)O; NEtVal = CCN[C@H](C(=O)O)C(C)C; NMeL = CN[C@@H](CC(C)C)C(=O)O; NMeV = CN[C@H](C(=O)O)C(C)C; dHiv = CC(C)[C@@H](O)C(=O)O; dNMeA = CN[C@H](C)C(=O)O; Abu = CC[C@H](N)C(=O)O; Sar = CNCC(=O)O

Experiments:
[1] = Cytostatic/cytotoxic effect, MTT (MTS) assay in Huh 9-13 cells; assay type: cell-based; details: metabolic activity reduced to 50% of untreated cells
From the text: Assays used Huh 9-13 containing the hepatitis C virus genotype 1b Con1 replicon (Lohmann et al. 2001. J. Virol. 75:1437-1449; and Lohmann et al. 1999. Science. 285:110-113). Cells were sub-cultured in cell growth medium DMEM supplemented with 10% FCS, 1% non-essential amino acids, 1% penicillin/streptomycin and 2% Geneticin (Invitrogen) at a ratio of 1:4-1:5 and grown for 3-4 days in 75 cm^2 tissue culture flasks (Techno Plastic Products), were harvested and seeded in assay medium (DMEM, 10% FCS, 1% non-essential amino acids, 1% penicillin/streptomycin) at a density of 5 000 cells/well (100 μl/well) in 96-well tissue culture microtiter plates (Falcon, Beckton Dickinson) for evaluation of cytostatic/cytotoxic and antiviral effect. The microtiter plates were incubated overnight (37° C., 5% CO2, 95-99% relative humidity), yielding a non-confluent cell monolayer.
Cell density and cytostatic effects were estimated in parallel cultures in regular 96-well plates (Beckton-Dickinson) using the MTT assay (CellTiter 96 AQueous Non-Radioactive Cell Proliferation Assay, Promega). In this assay, 3-(4,5-dimethyl-thiazol-2-yl)-5-(3-carboxymethoxy-phenyl)-2-(4-sulfophenyl)-2H-tetrazolium (MTS) is bioreduced to a formazan that is quantified at 498 nm in a plate reader. Formazan production is directly correlated with number of life cells. Absorbance was measured at a wavelength of 498 nm (Safire^2, Tecan) and optical densities (OD values) were converted to percentage of untreated controls.
The compounds were dissolved in DMSO at a concentration of 4 mmole/L. Stock solutions were immediately used to set up the experiments. The compounds were tested at 24 different concentrations ranging from 0.0001 μmole/L to 100 μmole/L. The highest concentration of DMSO in the assay was determined to be 2.5% (at 100 μM final concentration of the compound). During the assay setup, the DMSO percentage decreased concomitantly with decrease in concentration of the compound.
The EC50 (value derived from the dose-response curve) represents the concentration at which 50% inhibition of viral replication is observed. The CC50 (value derived from the dose-response curve) represents the concentration at which the metabolic activity of the cells is reduced to 50% of the metabolic activity of untreated cells.
Results from these experiments permitted calculation of EC50±SD (standard deviation or Std. Dev.), which is the effective concentration required to inhibit HCV replicon replication by 50%, and of CC50±SD (whenever possible), which is the concentration required that inhibits the proliferation of exponentially growing cells by 50%. EC50 and CC50±SD values were calculated respectively as the median of all the EC50, or CC50 values derived from the 3 individual dose-response curves. The selectivity index (SI), indicative of the therapeutic window of the compound was calculated as the ratio between CC50 and EC50.

[2] = molecular target: bile salt export pump (BSEP) (Homo sapiens, UniProt O95342); details: for BSEP fold Debio 025: IC50 ratio compared to Debio 025
Procedure: (§1) To determine whether the cycloundecadepsipeptide compounds of the present invention interact with hepatic transporters, experiments were carried out that compared the concentration-dependent inhibition towards the multidrug resistance associated protein 2 (MRP2), the organic anion transporting polypeptide 1B1 (OATP1B1), the bile salt export pump (BSEP) and the sodium-taurocholate cotransporting polypeptide (NTCP). These transporters are involved in the hepatobiliary circulation of endogenous compounds such as bile salts or bilirubin (for a review, see C. Pauli-Magnus et al, J. Hepatology, 2005, 43:342-357). Some of them also contribute to the elimination of xenobiotics.
(§2) MRP2 and BSEP were expressed by SOLVO Biotechnology in Spodoptera frugiperda (Sf9) ovarian cells, by infecting the insect cells with a recombinant baculovirus. The inhibition of the transport of the radioactive probe substrates (estradiol-17-beta-glucuronide and taurocholate for MRP2 and BSEP, respectively) into inside-out membrane vesicles, containing the transporter, was measured by scintillation counting.
(§3) The IC50 (defined as the concentration required for inhibiting the transport of the probe substrate by 50%, half maximal inhibitory concentration) of the compounds was derived from the concentration-response curve and compared to the IC50 of Debio 025 (IC50 ratio expressed as “fold Debio 025” in the tables).

[3] = molecular target: multidrug resistance associated protein 2 (MRP2) (Homo sapiens, UniProt Q92887)
Procedure: as §1, §2, §3

[4] = molecular target: organic anion transporting polypeptide 1B1 (OATP1B1) (Homo sapiens, UniProt Q9Y6L6)
Procedure: as §1
OATP1B1 and NTCP assays were performed with Chinese hamster ovary (CHO) cells expressing these human uptake transporters. The amount of the transported probe substrate (estrone-3-sulfate and taurocholate for OATP1B1 and NTCP, respectively) was determined by liquid scintillation or fluorescent photometry after cell lysis.
as §3

[5] = tested on: hepatitis C virus genotype 1b Con1 replicon; assay: HCV replicon assay, replicon RNA by RT-qPCR in Huh 9-13 cells; assay type: cell-based; details: 50% inhibition of HCV replicon replication, 3 dose-response curves
Procedure: For the evaluation of antiviral effects, assay medium was aspirated and the plates with dry monolayer were stored at −80° C. awaiting extraction. Following thawing of the plates at room temperature, the cell monolayer was lysed with 100 μl of cell-to-cDNA lysis buffer (Invitrogen). Lysis of the cells was allowed to proceed for 10 min at room temperature after which all liquid was transferred to a PCR plate (Axygen). The PCR plate was incubated for 15 min at 75° C. […] The lysate was diluted 1:2 with RNase/DNase-free water, after which 5 μl was transferred to the real-time PCR plate (Applied Biosystems).
Replicon RNA content was quantified using a real-time quantitative one-step RT-PCR method (RT-qPCR): Low Rox One-Step RT-qPCR master mix, Abgene). […] The fluorogenic probe was 5′-[sequence]-3′. The analysis of the samples were performed using a SDS7500F (Applied Biosystems, standard thermocycling profile: 30 min at 48° C., 10 min at 95° C., 40 cycles of 15 sec at 95° C. and 1 min at 60° C.) after which replicon RNA quantities were converted to percentage of untreated controls.

[6] = tested on: Concanavalin-A-induced T-cell proliferation; assay: Concanavalin-A-induced T-cell proliferation assay (immunosuppression); assay type: cell-based; details: inhibition of Concanavalin-A-induced T-cell proliferation
Procedure: To determine whether the cycloundecadepsipepide compounds of the present invention have a non-immunosuppression activity, experiments were carried out that compared the dose-dependent inhibition of Concanavalin-A-induced T-cell proliferation (see Table 2).
The method of the assays were performed as described by Dayton et al. (1992. Mol. Pharmacol. 41. 671-676) and Mishell et al. (1980. Cell proliferation in selected methods in cellular immunology, V, XXIX, W.H. Freeman Co., San Francisco, Calif. 153-160).

[7] = molecular target: T1, sodium-taurocholate cotransporting polypeptide (NTCP) (Homo sapiens, UniProt Q14973); assay: NTCP inhibition, taurocholate uptake in CHO cells; assay type: in vitro ADME; details: for NTCP IC50 / IC50: probe taurocholate, CHO cells; for NTCP fold Debio 025: IC50 ratio compared to Debio 025
T1 sequence (Q14973 1-349): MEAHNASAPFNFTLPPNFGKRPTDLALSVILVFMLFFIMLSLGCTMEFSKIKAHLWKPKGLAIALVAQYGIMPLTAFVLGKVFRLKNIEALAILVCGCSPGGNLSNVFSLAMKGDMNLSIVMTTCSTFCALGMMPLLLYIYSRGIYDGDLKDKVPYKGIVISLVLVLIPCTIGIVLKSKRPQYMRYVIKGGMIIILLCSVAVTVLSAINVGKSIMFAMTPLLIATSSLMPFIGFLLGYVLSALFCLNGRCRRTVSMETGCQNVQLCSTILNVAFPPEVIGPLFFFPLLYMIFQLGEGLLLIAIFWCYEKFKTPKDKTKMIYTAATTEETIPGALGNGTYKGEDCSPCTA

[8] = human, Huh 9-13 cells containing the HCV genotype 1b Con1 replicon

bile salt export pump (BSEP), sequence (O95342 whole entry): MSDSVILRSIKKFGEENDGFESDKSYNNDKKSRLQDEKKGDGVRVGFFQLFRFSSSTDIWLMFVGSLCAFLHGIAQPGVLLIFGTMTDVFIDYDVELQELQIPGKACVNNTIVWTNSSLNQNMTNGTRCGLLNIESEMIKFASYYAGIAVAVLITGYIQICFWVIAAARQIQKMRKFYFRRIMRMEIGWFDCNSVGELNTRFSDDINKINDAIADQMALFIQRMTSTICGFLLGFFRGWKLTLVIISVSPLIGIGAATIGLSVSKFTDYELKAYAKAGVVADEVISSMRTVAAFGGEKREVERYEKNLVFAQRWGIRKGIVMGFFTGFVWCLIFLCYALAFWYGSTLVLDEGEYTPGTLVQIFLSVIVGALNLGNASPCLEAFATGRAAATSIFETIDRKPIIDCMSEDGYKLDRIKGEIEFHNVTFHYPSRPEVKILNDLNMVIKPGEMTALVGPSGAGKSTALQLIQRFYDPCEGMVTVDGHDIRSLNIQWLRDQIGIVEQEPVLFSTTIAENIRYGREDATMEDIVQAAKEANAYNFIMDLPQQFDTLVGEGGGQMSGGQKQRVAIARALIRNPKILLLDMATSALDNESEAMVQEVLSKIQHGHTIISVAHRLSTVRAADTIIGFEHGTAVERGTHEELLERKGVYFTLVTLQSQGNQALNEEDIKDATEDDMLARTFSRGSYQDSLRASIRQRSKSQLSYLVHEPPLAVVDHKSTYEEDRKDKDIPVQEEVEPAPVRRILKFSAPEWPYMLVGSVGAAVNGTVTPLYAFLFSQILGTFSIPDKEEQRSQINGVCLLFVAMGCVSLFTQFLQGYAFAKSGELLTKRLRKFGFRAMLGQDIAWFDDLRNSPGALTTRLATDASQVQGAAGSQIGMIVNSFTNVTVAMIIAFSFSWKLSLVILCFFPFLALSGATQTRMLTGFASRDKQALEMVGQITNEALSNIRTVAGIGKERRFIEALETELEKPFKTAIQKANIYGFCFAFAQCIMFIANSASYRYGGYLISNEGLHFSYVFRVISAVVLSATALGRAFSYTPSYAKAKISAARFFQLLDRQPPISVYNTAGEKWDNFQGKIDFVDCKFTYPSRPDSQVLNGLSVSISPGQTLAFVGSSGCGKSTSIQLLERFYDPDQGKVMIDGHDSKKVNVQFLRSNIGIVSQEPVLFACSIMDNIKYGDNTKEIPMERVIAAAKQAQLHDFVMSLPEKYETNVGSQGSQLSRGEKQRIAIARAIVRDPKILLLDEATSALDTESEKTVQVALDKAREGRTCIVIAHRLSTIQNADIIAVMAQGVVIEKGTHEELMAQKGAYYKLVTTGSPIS
organic anion transporting polypeptide 1B1 (OATP1B1), sequence (Q9Y6L6 whole entry): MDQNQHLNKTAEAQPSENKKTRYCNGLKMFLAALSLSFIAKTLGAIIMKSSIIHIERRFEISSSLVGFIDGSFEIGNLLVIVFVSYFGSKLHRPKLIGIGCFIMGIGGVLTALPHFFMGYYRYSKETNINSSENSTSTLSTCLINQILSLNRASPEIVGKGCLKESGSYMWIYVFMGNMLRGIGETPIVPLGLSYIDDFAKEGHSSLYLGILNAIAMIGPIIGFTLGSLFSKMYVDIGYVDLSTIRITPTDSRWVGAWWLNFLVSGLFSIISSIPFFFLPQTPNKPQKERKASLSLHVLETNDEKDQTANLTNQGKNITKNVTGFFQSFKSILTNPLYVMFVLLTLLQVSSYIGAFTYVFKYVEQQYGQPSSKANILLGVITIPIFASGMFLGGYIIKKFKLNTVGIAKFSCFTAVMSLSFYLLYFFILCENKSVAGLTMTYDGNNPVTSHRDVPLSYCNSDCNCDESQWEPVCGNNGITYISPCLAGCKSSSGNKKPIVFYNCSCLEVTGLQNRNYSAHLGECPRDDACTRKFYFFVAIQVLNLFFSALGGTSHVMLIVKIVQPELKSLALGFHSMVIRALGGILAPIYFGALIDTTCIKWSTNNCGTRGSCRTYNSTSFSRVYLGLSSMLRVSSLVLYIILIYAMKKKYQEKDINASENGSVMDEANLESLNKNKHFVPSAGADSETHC
multidrug resistance associated protein 2 (MRP2), sequence (Q92887 whole entry): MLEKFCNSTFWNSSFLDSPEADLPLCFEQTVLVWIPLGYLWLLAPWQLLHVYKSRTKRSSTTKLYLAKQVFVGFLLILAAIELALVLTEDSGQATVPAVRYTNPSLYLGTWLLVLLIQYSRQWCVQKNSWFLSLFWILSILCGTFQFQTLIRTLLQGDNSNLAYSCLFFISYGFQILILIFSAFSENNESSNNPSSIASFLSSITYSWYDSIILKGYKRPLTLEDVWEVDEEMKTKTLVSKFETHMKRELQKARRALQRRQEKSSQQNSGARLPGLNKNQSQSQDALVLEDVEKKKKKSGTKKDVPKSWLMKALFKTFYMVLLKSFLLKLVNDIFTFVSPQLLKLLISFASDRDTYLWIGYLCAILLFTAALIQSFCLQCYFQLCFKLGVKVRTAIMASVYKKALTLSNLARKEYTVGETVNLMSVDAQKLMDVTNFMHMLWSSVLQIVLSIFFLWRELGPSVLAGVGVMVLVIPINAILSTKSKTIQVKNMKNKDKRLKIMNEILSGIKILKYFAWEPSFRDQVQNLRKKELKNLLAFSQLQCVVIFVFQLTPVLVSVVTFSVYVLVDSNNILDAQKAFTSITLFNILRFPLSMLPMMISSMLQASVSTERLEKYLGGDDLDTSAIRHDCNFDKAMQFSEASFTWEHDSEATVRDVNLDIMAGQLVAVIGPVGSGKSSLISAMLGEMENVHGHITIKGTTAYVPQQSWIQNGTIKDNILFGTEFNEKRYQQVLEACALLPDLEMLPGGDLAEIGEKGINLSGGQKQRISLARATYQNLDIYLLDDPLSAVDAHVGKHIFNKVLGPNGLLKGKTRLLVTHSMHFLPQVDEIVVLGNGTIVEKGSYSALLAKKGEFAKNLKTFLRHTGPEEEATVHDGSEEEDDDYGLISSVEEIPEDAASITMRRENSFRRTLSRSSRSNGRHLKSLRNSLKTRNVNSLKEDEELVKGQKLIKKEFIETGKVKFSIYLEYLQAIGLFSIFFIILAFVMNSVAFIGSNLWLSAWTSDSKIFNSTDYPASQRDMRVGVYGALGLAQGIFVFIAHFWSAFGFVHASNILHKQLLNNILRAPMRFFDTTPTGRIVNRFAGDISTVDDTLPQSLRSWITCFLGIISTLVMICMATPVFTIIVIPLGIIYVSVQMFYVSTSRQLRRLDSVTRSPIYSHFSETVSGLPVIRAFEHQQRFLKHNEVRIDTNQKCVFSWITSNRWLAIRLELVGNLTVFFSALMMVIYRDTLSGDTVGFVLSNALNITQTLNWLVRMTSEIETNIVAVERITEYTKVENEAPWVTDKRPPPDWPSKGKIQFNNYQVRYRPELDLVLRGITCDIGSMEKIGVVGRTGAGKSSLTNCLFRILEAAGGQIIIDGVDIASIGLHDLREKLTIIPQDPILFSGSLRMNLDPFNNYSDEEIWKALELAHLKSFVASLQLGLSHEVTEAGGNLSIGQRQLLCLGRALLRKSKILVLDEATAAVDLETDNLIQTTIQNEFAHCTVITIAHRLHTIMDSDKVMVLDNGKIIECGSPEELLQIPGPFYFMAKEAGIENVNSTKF

Row | Molecule | CC50 [1] | IC50 [2] | BSEP fold Debio 025 [2] | MRP2 IC50 [3] | IC50 [4] | OATP1B fold Debio 025 [4] | CC50 [1, 8] | EC50 [5] | IC50 [6] | NTCP IC50 [7] | NTCP fold Debio 025 [7] | IC50 [7] | IC50 [3] | MRP2 fold Debio 025 ([3]; IC50 ratio compared to Debio 025)
1 | C/C=C/C[C@@H](C)[C@@H](O)[C@H]1C(=O)N[C@@H](CC)C(=O)N(C)[C@H](C)C(=O)N(C)[C@@H]([C@@H](C)CC)C(=O)N[C@@H](CC(C)C)C(=O)N(C)[C@@H](CC(C)C)C(=O)NCC(=O)O[C@H](C(C)C)C(=O)N(C)[C@@H](CC(C)C)C(=O)N[C@@H](CC(C)C)C(=O)N(C)[C@@H](C(C)C)C(=O)N1C [(Ii), cyclo-(MeBmt-Abu-D-MeAla-MeIle-Leu-MeLeu-Gly-D-Hiv-MeLeu-Leu-MeVal)] (cyclo([Abu][dNMeA][NMeI]L[NMeL]G[dHiv][NMeL]L[NMeV][MeBmt])) | 25.4 µM | – | – | – | – | – | – | – | – | – | – | – | – | –
2 | C/C=C/C[C@@H](C)[C@@H](O)[C@H]1C(=O)N[C@@H](C(C)C)C(=O)N(C)[C@H](C)C(=O)N(CC)[C@@H](C(C)C)C(=O)N[C@@H](CC(C)C)C(=O)N(C)[C@@H](CC(C)C)C(=O)N[C@@H](C)C(=O)O[C@H](C(C)C)C(=O)N(C)[C@@H](CC(C)C)C(=O)N[C@@H](CC(C)C)C(=O)N(C)[C@@H](C(C)C)C(=O)N1C [(Ih), cyclo-(MeBmt-Val-D-MeAla-EtVal-Leu-MeLeu-Ala-D-Hiv-MeLeu-Leu-MeVal)] (cyclo(A[dHiv][NMeL]L[NMeV][MeBmt]V[dNMeA][NEtVal]L[NMeL])) | – | 0.3 µM | 0.80 | n.i. | 12 µM | 0.04 | 20.5 µM | 0.022 µM | 1.74 µM | n.i. | – | – | – | –
3 | C/C=C/C[C@@H](C)[C@@H](O)[C@H]1C(=O)N[C@@H](CC)C(=O)N(C)[C@H](C)C(=O)N(C)[C@@H](C(C)C)C(=O)N[C@@H](CC(C)C)C(=O)N(C)[C@@H](CC(C)C)C(=O)N[C@@H](C)C(=O)O[C@H](C(C)C)C(=O)N(C)[C@@H](CC(C)C)C(=O)N[C@@H](CC(C)C)C(=O)N(C)[C@@H](C(C)C)C(=O)N1C [(Id), cyclo-(MeBmt-Abu-D-MeAla-MeVal-Leu-MeLeu-Ala-D-Hiv-MeLeu-Leu-MeVal)] (cyclo(A[dHiv][NMeL]L[NMeV][MeBmt][Abu][dNMeA][NMeV]L[NMeL])) | – | 0.57 µM | 0.42 | n.i. | 7.9 µM | 0.05 | 44.4 µM | 0.025 µM | 1.44 µM | – | 1.2 | 2.5 µM | – | –
4 | C/C=C/C[C@@H](C)[C@@H](O)[C@H]1C(=O)N[C@@H](C(C)C)C(=O)N(C)[C@H](C)C(=O)N(C)[C@@H](C(C)C)C(=O)N[C@@H](C(C)C)C(=O)N(C)CC(=O)NCC(=O)O[C@H](C(C)C)C(=O)N(C)[C@@H](CC(C)C)C(=O)N[C@@H](CC(C)C)C(=O)N(C)[C@@H](C(C)C)C(=O)N1C [(Ik), cyclo-(MeBmt-Val-D-MeAla-MeVal-Val-Sar-Gly-D-Hiv-MeLeu-Leu-MeVal)] (cyclo(G[dHiv][NMeL]L[NMeV][MeBmt]V[dNMeA][NMeV]V[Sar])) | 9.8 µM | – | – | – | – | – | – | – | – | – | – | – | – | –
5 | C/C=C/C[C@@H](C)[C@@H](O)[C@H]1C(=O)N[C@@H](CC)C(=O)N(C)[C@H](C)C(=O)N(C)[C@@H](C(C)C)C(=O)N[C@@H](CC(C)C)C(=O)N(C)[C@@H](CC(C)C)C(=O)NCC(=O)O[C@H](C(C)C)C(=O)N(C)[C@@H](CC(C)C)C(=O)N[C@@H](CC(C)C)C(=O)N(C)[C@@H](C(C)C)C(=O)N1C [(Ia), cyclo-(MeBmt-Abu-D-MeAla-MeVal-Leu-MeLeu-Gly-D-Hiv-MeLeu-Leu-MeVal)] (cyclo([Abu][dNMeA][NMeV]L[NMeL]G[dHiv][NMeL]L[NMeV][MeBmt])) | – | 0.4 µM | 0.60 | n.i. | 18 µM | 0.02 | 60.1 µM | 0.034 µM | 2 µM | n.i. | – | – | – | –
6 | C/C=C/C[C@@H](C)[C@@H](O)[C@H]1C(=O)N[C@@H](CC)C(=O)N(C)[C@H](C)C(=O)N(CC)[C@@H](C(C)C)C(=O)N[C@@H](C(C)C)C(=O)N(C)[C@@H](CC(C)C)C(=O)N[C@@H](C)C(=O)N[C@H](C)C(=O)N(C)[C@@H](CC(C)C)C(=O)N(C)[C@@H](CC(C)C)C(=O)N(C)[C@@H](C(C)C)C(=O)N1C [Debio 025, [D-MeAla]^3-[EtVal]^4-CsA, reference compound] | – | 0.24 µM | 1 | – | 0.42 µM | 1 | 2.5 µM | 0.034 µM | – | – | 1 | 3.2 µM | 15 µM | 1
7 | C/C=C/C[C@@H](C)[C@@H](O)[C@H]1C(=O)N[C@@H](CC)C(=O)N(C)[C@H](C)C(=O)N(C)[C@@H](C(C)C)C(=O)N[C@@H]([C@@H](C)CC)C(=O)N(C)[C@@H](CC(C)C)C(=O)NCC(=O)O[C@H](C(C)C)C(=O)N(C)[C@@H](CC(C)C)C(=O)N[C@@H](CC(C)C)C(=O)N(C)[C@@H](C(C)C)C(=O)N1C [(Ig), cyclo-(MeBmt-Abu-D-MeAla-MeVal-Ile-MeLeu-Gly-D-Hiv-MeLeu-Leu-MeVal)] (cyclo([Abu][dNMeA][NMeV]I[NMeL]G[dHiv][NMeL]L[NMeV][MeBmt])) | 67 µM | – | – | – | – | – | – | – | – | – | – | – | – | –
8 | Cyclosporin A [Cyclosporin A (CsA), reference compound] | – | – | – | – | – | – | – | – | 0.006 µM | – | – | – | – | –
